The values that follow come from patent publication US20210371817A1, “COMPOSITIONS AND METHODS FOR PRECISE PATTERNING OF POSTERIOR NEUROECTODERM FROM HUMAN PLURIPOTENT STEM CELLS” (WISCONSIN ALUMNI RESEARCH FOUNDATION, priority 2013, published 2021).

For the test, the system named is NSC cultures. Briefly: Hox protein expression in NSC cultures after RA treatment (immunocytochemistry, flow cytometry). The class given is cell-based, human. How it is done:
Assessment of neuroectoderm or mesoderm fate transition by flow cytometry. Grey histogram, IgG control; red histogram, antigen of interest. Data are presented as mean±standard deviation calculated from two biological replicates. (FIG. 8B) For experiments in panels FIGS. 8C-8F, neuromesodermal propagation was halted by removing FGF8b/CHIR 99021/GDF11 and adding RA. Assays were conducted after 4 days of RA treatment. (FIG. 8C) HOX profiles generated after RA treatment. Each gene is normalized to its maximum expression. Error bars are standard deviation calculated from duplicate reactions. (FIG. 8D) HoxB4 and HoxD10 expression in neuroepithelial cultures after RA treatment. Scale bars, 100 m. (FIG. 8E) Purity of Sox2, Pax6, HoxB4, and HoxD10 after 4 days of RA treatment. Sox2, Pax6, and HoxB4 were quantified using flow cytometry and HoxD10 was quantified by manual counting of dissociated cells ([…]). Error bars are standard deviation calculated from at least two biological replicates. […] (FIG. 8F) Motor neuron differentiation at cervical, thoracic, and lumbar spinal cord depths, where the motor neuron precursors show region-specific patterns of FoxP1, Isl1, and Hb9 co-expression. (FIG. 8G) Neuronal maturation from cervical, thoracic, and lumbar patterned NSCs, as assessed by immunocytochemistry (top panel; DAPI (blue) is overlaid in all images; Scale bars, 20 m) and RT-PCR (50 cycles; bottom panel).
FIGS. 9A-9C (FIG. 9A) provides additional data showing that RA induces a neuroectodermal fate and halts colinear HOX activation, using the neural differentiation scheme shown in FIG. 8B and representative hindbrain cultures assessed by qPCR. (FIG. 9B) Representative hindbrain cultures assessed by immunocytochemistry. (FIG. 9C) Representative hindbrain cultures assessed by flow cytometry. All data are presented as mean±S.D. and qPCR data are normalized to the time point of maximum expression for each gene. For the hindbrain cultures, HoxB1 and HoxB4 were quantified by immunocytochemistry relative to DAPI+ nuclei, while Sox2 and Pax6 were quantified by flow cytometry. Scale bars, 100 m.
Flow cytometry. Flow cytometry was conducted as described in the Examples above. Primary antibodies against Sox2 (mouse; 1:1000; Millipore), brachyury (goat; 1:200; R&D Systems), Pax6 (mouse; 1:200; DSHB), and HoxB4 (rat; 1:50; DSHB) were utilized. Samples were run on a FACSCaliber (BD Biosciences) and data were analyzed using Cyflogic software. Positive events were quantified by gating above the top 1% of species-matched IgG controls.
Immunocytochemistry. Immunocytochemistry was conducted as previously described. […]

Turning to “GDF11: Growth differentiation factor 11, a TGFβ family member”, the “HoxD10+ cells” value is, setting by setting: (RA added at 120 h of neuromesodermal propagation) 0%; (RA added at 144 h of neuromesodermal propagation, after GDF11 treatment) 89±2%.
